# Assay: Stability of the solid state form upon exposure to humidity
# Format: physicochemical
# Description: Telatinib mono mesylate Form TM2 is stable upon exposure to high humidity. Telatinib mono mesylate is stable when exposed to 20-100% RH at 25° C. for 7 days.
smiles,measurement,value
CNC(=O)c1cc(COc2nnc(Nc3ccc(Cl)cc3)c3ccoc23)ccn1.CS(=O)(=O)O [Telatinib mono mesylate Form TM2],stability upon exposure to high humidity,stable

# From patent publication US20240294537A1, “SOLID STATE FORMS OF 4-[[4-(4-CHLOROANILINO)FURO[2,3-d]PYRIDAZIN-7-yl]OXYMETHYL]-N-METHYLPYRIDINE-2-CARBOXAMIDE AND SALT THEREOF” (TEVA PHARMACEUTICALS INTERNATIONAL GMBH, priority 2021, published 2024)
